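Five compound concentrations were applied to cells in 96-well plates for 48 hours; endpoints were derived by simple linear interpolation of the resulting dose-response curve. At the GI50, growth is halved.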 The source made the active and inactive calls. Cut-off read from the data, not from the text of the source: active = GI50 up to about 1.1 µM and inactive = higher.

Among the test systems are M14; NCI/ADR-RES; RPMI-8226; OVCAR-5; CCRF-CEM; NCI-H226; A549; MDA-MB-231; UACC-62; HCT-15; SK-OV-3; SNB-75; DU-145; SK-MEL-28; UACC-257; SW-620; SN12C; SR; CAKI-1; MDA-N.
What all share (assay): NCI tumour cell line growth inhibition, 48 h

Turning to `NNc1[nH]c(=S)[nH]c1C(N)=O`, the GI50 in the assay on M14, in the assay on NCI/ADR-RES, in the assay on RPMI-8226, in the assay on OVCAR-5, in the assay with CCRF-CEM and with NCI-H226 was > 100 µM (inactive) in each case. Further, the GI50 was > 100 µM (inactive) in the assay on A549; > 100 µM (inactive) with MDA-MB-231; > 100 µM (inactive) in the assay with UACC-62; > 100 µM in the assay with HCT-15; > 100 µM (inactive) in the assay with SK-OV-3; > 100 µM (inactive) with SNB-75. The GI50 in the assay on DU-145, with SK-MEL-28, with UACC-257, in the assay on SW-620 and in the assay with SN12C was > 100 µM (inactive) in each case.

With `O=C(N/N=C\c1ccc([N+](=O)[O-])cc1)Nc1ccccc1`, the GI50 with M14, with NCI/ADR-RES, in the assay on RPMI-8226, with OVCAR-5, with CCRF-CEM and in the assay with NCI-H226 was > 100 µM (inactive) throughout. Besides, the GI50 with SR is > 100 µM (inactive); in the assay with UACC-62, > 100 µM (inactive); with HCT-15, > 100 µM; in the assay on SK-OV-3, > 100 µM (inactive); in the assay on SNB-75, > 100 µM (inactive); in the assay on DU-145, > 100 µM (inactive). Besides, the GI50 with CAKI-1, in the assay on SK-MEL-28, in the assay with MDA-N, in the assay with UACC-257, in the assay with SW-620 and in the assay with SN12C was > 100 µM (inactive) in each case.

Regarding `COc1ccc2c(C)cc(N/N=C/c3ccc(OC)c4ccccc34)nc2c1`, the GI50 with M14 is 17.1 µM (inactive); in the assay with NCI/ADR-RES it was 14.4 µM (inactive); in the assay on RPMI-8226 it was 2.78 µM (inactive); in the assay on OVCAR-5, 14 µM (inactive); in the assay with CCRF-CEM, 1.93 µM (inactive); in the assay with NCI-H226 it was 12.9 µM (inactive). Moreover, the GI50 is 4.17 µM (inactive) in the assay with SR; 18.6 µM (inactive) in the assay with A549; 4.91 µM (inactive) with MDA-MB-231; 14.3 µM (inactive) in the assay with UACC-62; 10.1 µM with HCT-15; 17.3 µM (inactive) with SK-OV-3. For the same compound, the GI50 in the assay on SNB-75 is 22.9 µM (inactive); in the assay with DU-145, 4.36 µM (inactive); in the assay with CAKI-1 it was 13.4 µM (inactive); in the assay on SK-MEL-28 it was 16.1 µM (inactive); with UACC-257, 19.3 µM (inactive); with SW-620, 7.06 µM (inactive). Besides, the GI50 in the assay on SN12C is 2.13 µM (inactive).

In the case of `COc1cc2c(cc1OCCCCOc1cc(-c3ccc(F)cc3)nc(C)n1)N=C[C@@H]1CCCN1C2=O`, the GI50 in the assay with M14 is 0.678 µM (active); with NCI/ADR-RES, 0.45 µM (active); in the assay with RPMI-8226, 0.0519 µM (active); with OVCAR-5, 0.272 µM (active); in the assay with CCRF-CEM, 0.135 µM (active); in the assay with NCI-H226 it was 1.05 µM (active). Further, the GI50 in the assay with SR is 0.16 µM (active); in the assay on A549 it was 1.15 µM (inactive); with MDA-MB-231, 1.04 µM (active); in the assay with UACC-62, 0.378 µM (active); in the assay on HCT-15, 0.701 µM; in the assay on SK-OV-3, 3.19 µM (inactive). Besides, the GI50 was 0.723 µM (active) in the assay on SNB-75; 0.225 µM (active) in the assay on DU-145; 0.313 µM (active) in the assay with CAKI-1; 0.982 µM (active) with SK-MEL-28; 0.692 µM (active) with UACC-257; 0.855 µM (active) in the assay on SW-620. Also, in the assay with SN12C, the GI50 is 0.796 µM (active).

The values above are taken from ChEMBL document CHEMBL1201862, “PubChem BioAssay data set” (2004).
